Source: patent US4962109A, “Insecticidally and acaricidally active pyrimidine esters and intermediates therefor” (Imperial Chemical Industries PLC, priority 1985, dated 1990)

Key:
Format in all cases: in vivo
[1] = tested on: Spodoptera exigua (lesser army worm - larvae); assay: Residual test on lesser army worm larvae (SP), Cotton leaf, mortality; conditions: 48 h, 500 ppm, residual, 2 days, read-out: SP grading of mortality
Experimental: (§1) The activity of the Product was determined using a variety of insect pests. The Product was used in the form of liquid preparations containing 500, 250 or 100 parts per million (ppm) by weight of the Product. The preparations were made by dissolving the Product in acetone and diluting the solutions with water containing 0.01% by weight of a wetting agent sold under the trade name "LISSAPOL" NX until the liquid preparations contained the required concentration of the Product. "Lissapol" is a Registered Trade Mark.
(§2) The test procedure adopted with regard to each pest was basically the same and comprised supporting a number of the pests on a medium which was usually a host plant or a foodstuff on which the pests feed, and treating either or both the pests and the medium with the preparations. The mortality of the pests was then assessed at periods usually varying from one to three days after the treatment.
(§3) The results of the tests are given in Table III for each of the Products, at the rate in parts per million given in the second column as a grading of mortality designated as A, B or C wherein A indicates 80-100% mortality or knockdown, B indicates 50-79% mortality or knockdown and C indicates less than 50% mortality or knockdown.
(lesser army worm - larvae)

[2] = tested on: Blattella germanica (cockroach nymphs); assay: Contact test on cockroach nymphs (BG/C), Plastic pot, mortality; conditions: 48 h, 500 ppm, contact, 2 days, read-out: BG/C grading of mortality
Experimental: as §1, §2, §3
BG/C Blattella germanica

[3] = tested on: Nephotettix cincticeps (green leaf hopper - nymphs); assay: Contact test on green leaf hopper nymphs (NC), Rice plant, mortality; conditions: 48 h, 500 ppm, contact, 2 days, read-out: NC grading of mortality
Experimental: as §1, §2, §3
NC Nephotettix cincticeps

[4] = tested on: Musca domestica (houseflies - adults); assay: Knockdown test on houseflies - adults (MD/KD), Cotton wool/sugar; conditions: 500 ppm, 4 hours, read-out: MD/KD grading of knockdown
Experimental: as §1, §2
In the case of the species Musca domestica (housefly), additional tests to determine the knockdown effect of the compounds were performed. PG,163
as §3

Myzus persicae (aphids) = assay: Contact test on aphids (MP), Chinese Cabbage leaf, mortality; conditions: 72 h, 500 ppm, contact, 3 days, read-out: MP grading of mortality
Experimental: as §1, §2, §3

[5] = tested on: Heliothis virescens (tobacco budworm - larvae); assay: Residual test on tobacco budworm larvae (HV), Cotton leaf, mortality; conditions: 48 h, read-out: HV grading of mortality
Experimental: as §1, §2, §3
(tobacco budworm - larvae)

[6] = tested on: Musca domestica (houseflies - adults); assay: Contact test on houseflies - adults (MD), Cotton wool/sugar, mortality; conditions: 72 h, 500 ppm, contact, 3 days, read-out: MD grading of mortality
Experimental: as §1, §2, §3

[7] = tested on: Tetranychus urticae (spider mites - adult); assay: Contact test on spider mites - adult (TUa), French bean leaf, mortality; conditions: 72 h, 500 ppm, contact, 3 days, read-out: TUa grading of mortality
Experimental: as §1, §2, §3

[8] = tested on: Tetranychus urticae (spider mites - ova); assay: Contact test on spider mites - ova (TUe), French bean leaf, mortality; conditions: 144 h, 500 ppm, contact, 6 days, read-out: TUe grading of mortality
Experimental: as §1, §2, §3

[9] = tested on: Diabrotica balteata (rootworm larvae); assay: Residual test on rootworm larvae (DB), Filter paper/maize seed, mortality; conditions: 48 h, 500 ppm, residual, 2 days, read-out: DB grading of mortality
Experimental: as §1, §2, §3

SMILES: C=CC(C)(C)C(C(=O)OCc1c(F)c(F)c(COC)c(F)c1F)c1cnc(C(C)(C)C)nc1 (racemic) [Compound 211, 4-(methoxymethyl)-2,3,5,6-tetrafluorobenzyl (RS)-2-[2-(1,1-dimethylethyl)pyrimidin-5-yl]-3,3-dimethylpent-4-enoate]
- mortality at 500 ppm [1]: 80 to 100%
- mortality at 500 ppm [2]: < 50%
- mortality at 500 ppm [3]: 80 to 100%
- pest or weed control at 500 ppm [4]: 80 to 100%
- mortality at 500 ppm (Myzus persicae (aphids)): 80 to 100%
- mortality at 500 ppm [5]: < 50%
- mortality at 500 ppm [6]: < 50%
- mortality at 500 ppm [7]: 80 to 100%
- mortality at 500 ppm [8]: 80 to 100%
- mortality at 500 ppm [9]: < 50%

SMILES: CCC(C)(C)c1ncc(C(C(=O)OCc2c(F)c(F)c(COC)c(F)c2F)C(C)(C)C)cn1 (racemic) [Compound 61, 2,3,5,6-tetrafluoro-4-(methoxymethyl)benzyl (RS)-2-[2-(1,1-dimethylpropyl)pyrimidin-5-yl]-3,3-dimethylbutanoate]
- mortality at 500 ppm [1]: 80 to 100%
- mortality at 500 ppm [2]: < 50%
- mortality at 500 ppm [3]: 80 to 100%
- pest or weed control at 500 ppm [4]: 80 to 100%
- mortality at 500 ppm (Myzus persicae (aphids)): 80 to 100%
- mortality at 500 ppm [5]: < 50%
- mortality at 500 ppm [6]: 80 to 100%
- mortality at 500 ppm [7]: 80 to 100%
- mortality at 500 ppm [8]: < 50%
- mortality at 500 ppm [9]: < 50%

SMILES: CC(C)(C)c1ncc(C(C(=O)OCc2c(F)cccc2Cl)C(C)(C)C)cn1 (racemic) [Compound 26, 2-chloro-6-fluorobenzyl (RS)-2-[2-(1,1-dimethylethyl)pyrimidin-5-yl]-3,3-dimethylbutanoate]
- mortality at 500 ppm [1]: 80 to 100%
- mortality at 500 ppm [2]: < 50%
- mortality at 500 ppm [3]: 80 to 100%
- pest or weed control at 500 ppm [4]: 80 to 100%
- mortality at 500 ppm (Myzus persicae (aphids)): 50 to 79%
- mortality at 500 ppm [5]: < 50%
- mortality at 500 ppm [6]: 80 to 100%
- mortality at 500 ppm [7]: 80 to 100%
- mortality at 500 ppm [8]: 80 to 100%
- mortality at 500 ppm [9]: 80 to 100%

SMILES: C[C@@H](OC(=O)[C@@H](c1cnc(C(C)(C)C)nc1)C(C)(C)C)c1cccc(Oc2ccc(Cl)cc2)n1 (racemic) [Compound 181, (RS)-1-[6-(4-chlorophenoxy)pyrid-2-yl]ethyl (RS)-2-[2-(1,1-dimethylethyl)pyrimidin-5-yl]-3,3-dimethylbutanoate]
- mortality at 500 ppm [1]: 80 to 100%
- mortality at 500 ppm [2]: < 50%
- mortality at 500 ppm [3]: 80 to 100%
- pest or weed control at 500 ppm [4]: 80 to 100%
- mortality at 500 ppm (Myzus persicae (aphids)): 80 to 100%
- mortality at 500 ppm [5]: 80 to 100%
- mortality at 500 ppm [6]: 80 to 100%
- mortality at 500 ppm [7]: 80 to 100%
- mortality at 500 ppm [8]: < 50%
- mortality at 500 ppm [9]: 80 to 100%

SMILES: C=CCc1c(F)c(F)c(COC(=O)C(c2cnc(C(C)(C)C)nc2)C(C)(C)C)c(F)c1F (racemic) [Compound 5, 4-(prop-2-en-1-yl)-2,3,5,6-tetrafluorobenzyl (RS)-2-[2-(1,1-dimethylethyl)pyrimidin-5-yl]-3,3-dimethylbutanoate]
- mortality at 500 ppm [1]: 80 to 100%
- mortality at 500 ppm [2]: < 50%
- mortality at 500 ppm [3]: 50 to 79%
- pest or weed control at 500 ppm [4]: 50 to 79%
- mortality at 500 ppm (Myzus persicae (aphids)): 80 to 100%
- mortality at 500 ppm [5]: 50 to 79%
- mortality at 500 ppm [6]: < 50%
- mortality at 500 ppm [7]: 80 to 100%
- mortality at 500 ppm [8]: < 50%
- mortality at 500 ppm [9]: < 50%

SMILES: COCc1c(F)c(F)c(COC(=O)C(c2cnc(C(C)C)nc2)C(C)(C)C)c(F)c1F (racemic) [Compound 131, 2,3,5,6-tetrafluoro-4-(methoxymethyl)benzyl (RS)-2-[2-(1-methylethyl)-pyrimidin-5-yl]-3,3dimethylbutanoate]
- mortality at 500 ppm [1]: 80 to 100%
- mortality at 500 ppm [2]: < 50%
- mortality at 500 ppm [3]: 80 to 100%
- pest or weed control at 500 ppm [4]: 80 to 100%
- mortality at 500 ppm (Myzus persicae (aphids)): 80 to 100%
- mortality at 500 ppm [5]: < 50%
- mortality at 500 ppm [6]: < 50%
- mortality at 500 ppm [7]: 80 to 100%
- mortality at 500 ppm [8]: 80 to 100%
- mortality at 500 ppm [9]: 80 to 100%

SMILES: COCc1c(F)c(F)c(COC(=O)C(c2cnc(C(F)(F)F)nc2)C(C)(C)C)c(F)c1F (racemic) [Compound 41, 2,3,5,6-tetrafluoro-4-(methoxymethyl)benzyl (RS)-2-[2-(trifluoromethyl)pyrimidin-5-yl]-3,3-dimethylbutanoate]
- mortality at 500 ppm [1]: 80 to 100%
- mortality at 500 ppm [2]: 80 to 100%
- mortality at 500 ppm [3]: 80 to 100%
- pest or weed control at 500 ppm [4]: 80 to 100%
- mortality at 500 ppm (Myzus persicae (aphids)): 80 to 100%
- mortality at 500 ppm [5]: 80 to 100%
- mortality at 500 ppm [6]: 80 to 100%
- mortality at 500 ppm [7]: 80 to 100%
- mortality at 500 ppm [8]: < 50%
- mortality at 500 ppm [9]: < 50%

SMILES: Cc1ncc(C(C(=O)OCc2ccc(F)c(Oc3ccccc3)c2)C(C)(C)C)cn1 (racemic) [Compound 206, 4-fluoro-3-phenoxybenzyl (RS)-2-(2-methylpyrimidin-5-yl)-3,3,-dimethylbutanoate]
- mortality at 500 ppm [1]: 80 to 100%
- mortality at 500 ppm [2]: 50 to 79%
- mortality at 500 ppm [3]: 80 to 100%
- pest or weed control at 500 ppm [4]: 80 to 100%
- mortality at 500 ppm (Myzus persicae (aphids)): 80 to 100%
- mortality at 500 ppm [5]: 80 to 100%
- mortality at 500 ppm [6]: 80 to 100%
- mortality at 500 ppm [7]: 80 to 100%
- mortality at 500 ppm [8]: < 50%
- mortality at 500 ppm [9]: 80 to 100%

SMILES: COCc1c(F)c(F)c(COC(=O)C(c2cnc(C(C)(C)C)nc2)C(F)(F)F)c(F)c1F (racemic) [Compound 213, 4-(methoxymethyl)-2,3,5,6-tetrafluorobenzyl (RS)-2-[2-(1,1-dimethylethyl)pyrimidin-5-yl]-3,3,3-trifluoropropionate]
- mortality at 500 ppm [1]: < 50%
- mortality at 500 ppm [2]: 50 to 79%
- mortality at 500 ppm [3]: < 50%
- pest or weed control at 500 ppm [4]: 80 to 100%
- mortality at 500 ppm (Myzus persicae (aphids)): 50 to 79%
- mortality at 500 ppm [5]: < 50%
- mortality at 500 ppm [6]: < 50%
- mortality at 500 ppm [7]: 80 to 100%
- mortality at 500 ppm [8]: < 50%
- mortality at 500 ppm [9]: < 50%

SMILES: CC(C)(C)OC(=O)COCc1c(F)c(F)c(COC(=O)C(c2cnc(C(C)(C)C)nc2)C(C)(C)C)c(F)c1F (racemic) [Compound 165, 4-[(1,1-dimethylethyl)oxycarbonylmethoxymethyl]-2,3,5,6-tetrafluorobenzyl (RS)-2-[2-(1,1-dimethylethyl]pyrimidin-5-yl]-3,3-dimethylbutanoate]
- mortality at 500 ppm [1]: < 50%
- mortality at 500 ppm [2]: < 50%
- mortality at 500 ppm [3]: 50 to 79%
- pest or weed control at 500 ppm [4]: < 50%
- mortality at 500 ppm (Myzus persicae (aphids)): < 50%
- mortality at 500 ppm [5]: < 50%
- mortality at 500 ppm [6]: < 50%
- mortality at 500 ppm [7]: < 50%
- mortality at 500 ppm [8]: < 50%
- mortality at 500 ppm [9]: < 50%

SMILES: COCc1c(F)c(F)c(COC(=O)C(c2cnc(C(C)C)nc2)C(C)(C)C)c(OC)c1F (racemic) [Compound 76, 3,5,6-trifluoro-2-methoxy-4-(methoxymethyl)benzyl (RS)-2-[2-(1-methylethyl)pyrimidin-5-yl]-3,3-dimethylbutanoate]
- mortality at 500 ppm [1]: 80 to 100%
- mortality at 500 ppm [2]: 50 to 79%
- mortality at 500 ppm [3]: 80 to 100%
- pest or weed control at 500 ppm [4]: 80 to 100%
- mortality at 500 ppm (Myzus persicae (aphids)): 80 to 100%
- mortality at 500 ppm [5]: 80 to 100%
- mortality at 500 ppm [6]: 50 to 79%
- mortality at 500 ppm [7]: 80 to 100%
- mortality at 500 ppm [8]: < 50%
- mortality at 500 ppm [9]: < 50%

SMILES: COc1c(F)c(COc2ccccc2)c(F)c(F)c1COC(=O)C(c1cnc(C(C)(C)C)nc1)C(C)(C)C (racemic) [Compound 193, 2,3,5-trifluoro-6-methoxy-4-(phenoxymethyl)benzyl (RS)-2-[2-(1,1-dimethylethyl)pyrimidin-5-yl]-3,3-dimethylbutanoate]
- mortality at 500 ppm [1]: 80 to 100%
- mortality at 500 ppm [2]: < 50%
- mortality at 500 ppm [3]: 50 to 79%
- pest or weed control at 500 ppm [4]: < 50%
- mortality at 500 ppm (Myzus persicae (aphids)): 80 to 100%
- mortality at 500 ppm [5]: < 50%
- mortality at 500 ppm [6]: < 50%
- mortality at 500 ppm [7]: 80 to 100%
- mortality at 500 ppm [8]: < 50%
- mortality at 500 ppm [9]: < 50%

SMILES: COCc1c(F)c(F)c(COC(=O)C(c2cnc(C(C)(C)C)nc2)C(C)(C)C)c(F)c1OC (racemic) [Compound 217, 2,3,6-trifluoro-5-methoxy-4-(methmethyl)-benzyl (RS)-2-[2-(1,1-dimethylethyl)pyrimidin-5-yl]-3,3-dimethylbutanoate]
- mortality at 500 ppm [1]: 80 to 100%
- mortality at 500 ppm [2]: < 50%
- mortality at 500 ppm [3]: 80 to 100%
- pest or weed control at 500 ppm [4]: 80 to 100%
- mortality at 500 ppm (Myzus persicae (aphids)): 80 to 100%
- mortality at 500 ppm [5]: 80 to 100%
- mortality at 500 ppm [6]: 80 to 100%
- mortality at 500 ppm [7]: 80 to 100%
- mortality at 500 ppm [8]: < 50%
- mortality at 500 ppm [9]: < 50%
